The target in this assay is T1, dihydroorotase (Mesocricetus auratus, UniProt P08955).
T1 construct: purified by an established procedure from a mutant hamster cell line which overproduces the target enzyme; endogenous in cells; host or cells: mutant hamster cell line overproducing the enzyme more than 100-fold; enzyme purified from these cells
Briefly: Dihydroorotase inhibition assay (conversion of L-[14C]dihydroorotate to N-[14C]carbamyl-L-aspartate). It counts as biochemical, hamster. How it is done: Dihydroorotase has been purified by an established procedure from a mutant hamster cell line which overproduces the target enzyme by more than 100-fold (P.F. Coleman, D.P. Suttle and G.R. Stark (1978) in "Methods in Enzymology" (P.A. Hoffee and M.E. Jones eds.) Vol. 51, pp 121-134, Academic Press, New York; P.F. Coleman D.P. Suttle and G.R. Stark (1977) J. Biol. Chem. 252, 6379-6385). Purified dihydroorotase was stored at -70°C in a solution containing 30% (v/v) dimethyl sulphoxide, 5% (v/v) glycerol, 50 mM KCl, 4 mM L-glutamine, 4 mM L-aspartate, 0.1 mM EDTA and 1 mM dithiothreitol.
Dihydroorotase catalyses the conversion of N-carbamyl-L-aspartate to L-dihydroorotate. To assess the effects of a potential inhibitor of this target enzyme, the rate of conversion of L-dihydroorotate to N-carbamyl-L-aspartate catalysed by dihydroorotase was measured in the presence of a range of concentrations of the inhibitor. For a tight-binding inhibitor like TDHO, extremely low concentrations are sufficient to abolish all dihydroorotase activity. To illustrate the inhibitory potency of TDHO, results of the following experiment are presented. Assay mixtures for dihydroorotase activity contained in a total volume of 25 ul, 50 mM K.Hepes buffer pH 7.4, 5% (v/v) glycerol 12.5 µM L-[¹⁴C]dihydroorotate (specific radioactivity 47.1 Ci/mol), and TDHO concentrations ranging from 0 - 1.50 µM containing a 30-fold molar excess of ZnCl₂. Catalysis was initiated by addition of 39 ng of dihydroorotase. The rate of conversion of L-[¹⁴C]dihydroorotate to N-[¹⁴C]carbamyl-L-aspartate was measured in the presence of different concentrations of TDHO, using established procedures (R.I. Christopherson, T. Matsuura and M.E. Jones (1978) Analytical Biochemistry 100, 184-187). The assay mixture lacking TDHO had the fastest reaction velocity while the lowest velocity measured was in the presence of the highest concentration of TDHO. The results data are plotted as the reciprocal of reaction velocity (l/v) versus the concentration of TDHO from which a value for the dissociation constant (Ki value) for TDHO from the enzyme-TDHO complex can be obtained.
Assay mixtures for dihydroorotase activity contained in a total volume of 25 µl:50 mM K.Hepes buffer pH 7.4, 5% (v/v) glycerol, 12.5 µM L-[¹⁴C]dihydroorotate (specific radioactivity 47.1 Ci/mol), and HDDP concentrations ranging from 0 - 5 µM. Catalysis was initiated by addition of 39 ng of dihydroorotase. The rate of conversion of L-[¹⁴C]dihydroorotate to N-[¹⁴C]carbamyl-L-aspartate was measured in the presence of different concentrations of HDDP, in a similar manner to Test 3.

T1 sequence (P08955 whole entry): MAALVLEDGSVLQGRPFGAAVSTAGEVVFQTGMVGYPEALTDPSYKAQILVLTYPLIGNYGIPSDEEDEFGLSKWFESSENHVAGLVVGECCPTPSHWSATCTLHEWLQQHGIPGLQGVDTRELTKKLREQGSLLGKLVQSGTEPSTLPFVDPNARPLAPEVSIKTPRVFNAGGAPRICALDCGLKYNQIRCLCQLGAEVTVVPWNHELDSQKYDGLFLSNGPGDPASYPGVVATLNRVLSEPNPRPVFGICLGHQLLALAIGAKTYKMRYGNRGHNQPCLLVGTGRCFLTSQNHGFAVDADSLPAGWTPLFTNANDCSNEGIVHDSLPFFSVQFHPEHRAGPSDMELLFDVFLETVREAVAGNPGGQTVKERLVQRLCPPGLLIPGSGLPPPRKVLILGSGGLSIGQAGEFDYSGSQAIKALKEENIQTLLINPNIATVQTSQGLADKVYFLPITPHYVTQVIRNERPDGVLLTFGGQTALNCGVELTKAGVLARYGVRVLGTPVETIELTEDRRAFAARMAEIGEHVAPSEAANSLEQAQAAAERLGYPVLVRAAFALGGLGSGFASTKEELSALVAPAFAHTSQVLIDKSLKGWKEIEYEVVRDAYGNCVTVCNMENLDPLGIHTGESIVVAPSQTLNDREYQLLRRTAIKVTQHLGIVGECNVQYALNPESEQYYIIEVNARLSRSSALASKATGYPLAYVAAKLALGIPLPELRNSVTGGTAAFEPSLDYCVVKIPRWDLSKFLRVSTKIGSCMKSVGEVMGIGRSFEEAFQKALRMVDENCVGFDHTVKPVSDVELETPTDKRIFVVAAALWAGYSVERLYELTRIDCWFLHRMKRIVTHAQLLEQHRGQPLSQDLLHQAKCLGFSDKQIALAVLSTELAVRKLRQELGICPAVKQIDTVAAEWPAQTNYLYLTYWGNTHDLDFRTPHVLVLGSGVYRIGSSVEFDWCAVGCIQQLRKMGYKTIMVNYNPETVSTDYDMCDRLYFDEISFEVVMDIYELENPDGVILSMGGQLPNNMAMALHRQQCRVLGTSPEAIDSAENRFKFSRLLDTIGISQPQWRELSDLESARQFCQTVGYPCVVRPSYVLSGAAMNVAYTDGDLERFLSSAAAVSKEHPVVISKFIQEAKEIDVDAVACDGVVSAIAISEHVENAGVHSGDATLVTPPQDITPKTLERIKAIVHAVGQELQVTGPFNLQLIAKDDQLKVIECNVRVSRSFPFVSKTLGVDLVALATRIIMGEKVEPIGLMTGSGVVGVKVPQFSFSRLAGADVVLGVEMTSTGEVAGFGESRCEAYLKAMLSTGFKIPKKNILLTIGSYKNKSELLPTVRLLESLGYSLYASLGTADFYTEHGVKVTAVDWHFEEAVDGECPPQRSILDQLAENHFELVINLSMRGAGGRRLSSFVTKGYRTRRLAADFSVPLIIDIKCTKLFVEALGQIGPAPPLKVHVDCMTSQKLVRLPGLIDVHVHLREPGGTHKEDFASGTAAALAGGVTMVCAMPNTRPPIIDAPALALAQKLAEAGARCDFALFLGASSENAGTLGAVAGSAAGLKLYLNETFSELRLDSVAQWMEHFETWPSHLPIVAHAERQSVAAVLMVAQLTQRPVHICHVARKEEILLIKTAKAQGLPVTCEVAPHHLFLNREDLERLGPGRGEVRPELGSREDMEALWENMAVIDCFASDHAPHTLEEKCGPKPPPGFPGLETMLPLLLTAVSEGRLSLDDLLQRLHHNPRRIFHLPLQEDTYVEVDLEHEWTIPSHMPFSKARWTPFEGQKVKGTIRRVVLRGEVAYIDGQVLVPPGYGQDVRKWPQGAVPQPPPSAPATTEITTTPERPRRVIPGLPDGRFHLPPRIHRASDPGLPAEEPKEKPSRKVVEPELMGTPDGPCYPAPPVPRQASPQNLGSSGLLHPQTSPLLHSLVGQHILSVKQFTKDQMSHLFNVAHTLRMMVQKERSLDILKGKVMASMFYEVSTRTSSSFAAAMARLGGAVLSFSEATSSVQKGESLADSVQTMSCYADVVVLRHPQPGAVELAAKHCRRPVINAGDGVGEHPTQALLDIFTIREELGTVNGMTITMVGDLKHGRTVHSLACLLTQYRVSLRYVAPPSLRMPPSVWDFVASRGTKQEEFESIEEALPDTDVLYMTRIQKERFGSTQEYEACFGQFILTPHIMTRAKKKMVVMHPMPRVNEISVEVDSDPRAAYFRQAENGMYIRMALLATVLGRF

On to `O=C1NC(=S)CC(C(=O)O)N1` (stereo not shown) [TDHO, Hexahydro-2-oxo-6-thioxo-4-pyrimidinecarboxylic acid], for which the inhibitory constant (Ki) is, setting by setting: (TDHO containing a 30-fold molar excess of ZnCl₂, pH 7.4, 12.5 µM L-[¹⁴C]dihydroorotate) 53 nM; (free acid of TDHO, in the absence of Zn²⁺) 4500 nM.
For the setting “HDDP 0 - 5 µM, pH 7.4, 12.5 µM L-[¹⁴C]dihydroorotate, no ZnCl₂ mentioned”, `O=C1NC(C(=O)O)=CC(C(=O)O)N1` (stereo not shown) [HDDP, 2-oxo-1,2,3,6-tetrahydropyrimidine-4,6-dicarboxylic acid] yielded an inhibition constant Ki of 480 nM.
Turning to ZnCl₂ [reference compound], where the note is “ZnCl₂ alone, at the same concentrations as in the TDHO experiment”, the inhibitory effect entry is “moderate inhibitory effect”.

(Values after patent EP0260057A2, “2-Oxo-4-carboxy-pyrimidines” (THE UNIVERSITY OF MELBOURNE, priority 1986, dated 1988).)
